Where “and” joins values, the source holds several entries; their conditions need not be identical. Identical values can stand only once. Like-named read-outs stand apart in the source and are kept apart here. Bounds are passed on as bounds.

The subject of data set [1] is Huh-7D12. Nature of the data set: 99% toxic dose (TD99) in Huh-7D12. Format: cell-based.
Data set [2] can be described thus: In vivo pharmacokinetics, plasma and brain. Set-up: species or system Balb/C male mice. As to conditions: 250 mg/kg intragastric; for AUC(0-inf) / MRT / half-life / AUC(0-t) / Cmax: male, Balb/C, mouse, po; for AUC(0-inf) / MRT / half-life / AUC(0-t) / Cmax / CL / Kel / Vd: plasma; for AUC(0-t): read-out: AUC0-7. The protocol:
The pharmacokinetics of compound 1 was studied in white Balb/C male mice. 22 animals with an average body weight of 20 g were selected for the study. Before the study, the animals were kept on a standard vivarium ration with dry pelleted feed. All the test animals had free access to water but were deprived of food for 1 hour before administration of the compound. This regimen was continued for another hour after the administration.
Compound 1 in a dose of 250 mg/kg of body weight was administered as 0.5 ml of prepared suspension in 0.5% CMC by intragastric intubation. The animals were euthanized by decapitation for blood and brain sampling. Blood and brain samples (3 animals per time point) were taken at 0.5, 1, 2, 3, 5 and 7 hours after administration for pharmacokinetic evaluation. Blood was collected in heparinized tubes and centrifuged at 3500 RPM. Plasma was separated from formed elements and immediately frozen at −20° C. in freezer. This storage continued before transferring plasma for analysis. Serum from 6 untreated animals was used as a control and for equipment calibration with the compound. Mice brain was immediately frozen at −120° C.
Plasma separation: Samples of experimental blood ([…]) from animals were centrifuged at 3500 rpm for 15 minutes.
Sample preparation: A mixture of 60 μL of plasma and 180 μL of acetonitrile (MeCN) by intensive shaking (Vortex) for 30 sec. Centrifugation 32000 g for 4 min. After centrifugation the 150 μL of organic layer was injected into the HPLC column.
Equipment: HPLC System Agilent 1290 Infinity, MS spectrometer Agilent 6460 (Agilent Technologies, Santa Clara, California, United States of America)
HPLC conditions: Column: Agilent Eclipse Plus C18 RRHD 1.8 um 2.1×50 mm (Agilent Technologies, Santa Clara, California, United States of America), Temperature: 40° C., Flow speed: 0.4 mL/min
Eluent: A: water, 0.1% formic acid; B: 85% acetonitrile in water, 0.1% formic acid
Gradient: 0.0-3.0 min: 60% B (separation), 3.0-4.0 min: 60->97% B (washing and regeneration), 4.0-6.0 min: 97% B, 6.0-6.1 min: 97->60% B, 6.1-9.0 min: 60% B, Volume of sample: 2 μL. Retention time in above conditions: 2.40 min.
MS conditions: ESI(+), MRM 400->209, Dwell time: 200 ms, Fragmentor: 135 V, Collision energy: 12, Cell Accelerator: 3 V, Gas Temp: 350° C., Gas Flow: 12 I/min, Nebulizer: 35 psi, Sheath gas Temp: 300° C., Capillary Voltage: 3500 V, Nozzle Voltage: 450 V; Diverter valve: 0.0-1.3 min: to waste; 1.3-3.0 min: to MS, data acquisition, 3.0-7.0 min: to MS, idle, 7.0- . . . min: to waste
Brain separation: Samples of experimental brain from animals were dispersed at 25K turn/min for 3 minutes and 100 mg of each sample was balanced to a sterile container.
Sample preparation: A mixture of 100 mg of brain and 100 μL of water was treated by zirconium balls in a homogonisator MagNA Lyser for 30 sec. 300 μL of MeCN was added and intensive shaking (Vortex) for 30 sec was performed. Centrifugation 32000 g for 4 min.
Equipment: HPLC System Agilent 1290 Infinity, MS spectrometer Agilent 6460 (Agilent Technologies, Santa Clara, California, United States of America).
HPLC conditions: Column: Agilent Eclipse Plus C18 RRHD 1.8 um 2.1×50 mm (Agilent Technologies, Santa Clara, California, United States of America), Temperature: 40° C., Flow speed: 0.4 mL/min.
Eluent: A: water, 0.1% formic acid; B: 85% acetonitrile in water, 0.1% formic acid.
Gradient: 0.0-3.0 min: 60% B (separation), 3.0-4.0 min: 60->97% B (washing and regeneration), 4.0-6.0 min: 97% B, 6.0-6.1 min: 97->60% B, 6.1-9.0 min: 60% B, Volume of sample: 2 μL.
Retention time in above conditions: 2.40 min […]

For data set [3], the target named is CYP2C19 (Homo sapiens, UniProt P33261). Nature of the data set: Human CYP inhibition in human liver microsomes. Format: in vitro ADME. As to conditions: substrate omeprazole, read-out: CYP inhibition IC50, 2C19. The protocol:
(§1) Study samples (containing either control inhibitor or test compound) were added into the tubes, vortexed gently and pre-incubated for 5 min at 37° C. 20 μL of NADPH solution was aliquoted into all tubes, then vortexed to start the reaction and to assure adequate mixture of the NADPH. After mixing, the tubes were incubated for 20 min at 37° C. in a shaking water bath and then quenched in […] formic acid/acetonitrile solution. After quenching, the samples were vortexed vigorously for 1 min and centrifuged at 4,000 rpm for 15 min (4° C.). 100 μL of supernatant was transferred to 0.65 ml tubes for LCMS analysis by the bioanalytical method described earlier. The CYP450 substrates and control inhibitors for each enzyme was as follows: CYP1A2 (phenacetin, naphthoflavone), CYP2C9 (diclofenac, sulfaphenazole), CYP2C19 (omeprazole, tranylcypromine), CYP2D6 (dextromethorphan, quinidine), CYP3A4 (midazolam, ketoconazole).
A general note: Microsomes from liver hold many membrane-bound enzymes, among them those of drug oxidation.

Data set [4] addresses CYP2C9 (Homo sapiens, UniProt P11712). In words: Human CYP inhibition in human liver microsomes. Format: in vitro ADME. Conditions: substrate diclofenac, read-out: CYP inhibition IC50, 2C9. The protocol:
as §1

Chain of CYP2C19 (P33261 whole entry): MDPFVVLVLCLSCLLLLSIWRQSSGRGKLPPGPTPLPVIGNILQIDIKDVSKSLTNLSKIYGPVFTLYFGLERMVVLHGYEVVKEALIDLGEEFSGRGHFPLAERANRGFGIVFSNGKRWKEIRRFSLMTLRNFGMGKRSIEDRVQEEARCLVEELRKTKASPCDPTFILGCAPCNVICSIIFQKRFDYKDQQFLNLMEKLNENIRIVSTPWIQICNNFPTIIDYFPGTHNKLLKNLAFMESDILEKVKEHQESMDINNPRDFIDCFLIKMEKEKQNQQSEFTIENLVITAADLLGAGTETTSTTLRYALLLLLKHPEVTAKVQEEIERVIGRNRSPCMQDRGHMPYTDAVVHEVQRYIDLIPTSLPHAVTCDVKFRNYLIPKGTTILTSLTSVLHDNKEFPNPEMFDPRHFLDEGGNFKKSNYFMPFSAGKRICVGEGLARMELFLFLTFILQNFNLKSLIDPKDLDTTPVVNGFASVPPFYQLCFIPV
Chain of CYP2C9 (P11712 whole entry): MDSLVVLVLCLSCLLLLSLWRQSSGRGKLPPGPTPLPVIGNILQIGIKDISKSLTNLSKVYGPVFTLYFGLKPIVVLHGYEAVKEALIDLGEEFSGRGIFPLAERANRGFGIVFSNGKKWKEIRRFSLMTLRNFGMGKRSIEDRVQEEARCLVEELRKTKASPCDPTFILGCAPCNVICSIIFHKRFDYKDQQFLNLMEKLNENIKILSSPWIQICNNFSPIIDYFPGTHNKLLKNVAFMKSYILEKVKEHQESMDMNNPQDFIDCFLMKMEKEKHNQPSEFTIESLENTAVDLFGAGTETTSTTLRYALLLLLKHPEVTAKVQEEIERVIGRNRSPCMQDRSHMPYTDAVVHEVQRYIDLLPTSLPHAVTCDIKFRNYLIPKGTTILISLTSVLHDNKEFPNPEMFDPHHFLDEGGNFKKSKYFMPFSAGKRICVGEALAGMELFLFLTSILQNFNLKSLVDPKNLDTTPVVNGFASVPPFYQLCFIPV

For orientation: AUC(0-inf) means total exposure, with the tail of the curve extrapolated. By MRT is commonly meant a mean duration of stay, worked out from the concentration-time curve. The half-life is the time in which the quantity being followed falls by half. Low readings indicate rapid decline, high ones slow decline. The Cmax is the maximum level reached in the sampled fluid or tissue. A word on the Vd: it is the apparent volume that relates the amount in the body to the concentration in plasma or blood. A higher Vd goes with extensive tissue distribution. As to `Nc1nc(Nc2ccc(Cl)cc2)nn1S(=O)(=O)c1ccc2ccccc2c1` [Compound 1, N3-(4-chlorophenyl)-1-(2-naphthylsulfonyl)-1,2,4-triazole-3,5-diamine], in data set [1], the “99% toxic dose (TD99)” value is > 11 μg/ml and > 27.5 μM. Further, in data set [2] (250 mg/kg, mean of mice groups), the AUC(0-inf) was 6220 ng·h/mL, the MRT worked out at 5.9 h, the half-life is 4.1 h and the AUC(0-t) stood at 4050 ng·h/mL. For the same compound, in data set [2] (250 mg/kg, mice group 1), the area under the curve AUC(0-inf) was found to be 6230 ng·h/mL, the peak level (Cmax) was 1050 ng/mL, the MRT was 7.4 h and the half-life is 5 h. Besides, in data set [2] (250 mg/kg, mice group 1), the AUC(0-t) came to 3710 ng·h/mL. Also, in data set [2] (250 mg/kg, mice group 2), the AUC(0-inf) was 6890 ng·h/mL, the Cmax is 1170 ng/mL, the MRT turned out to be 6.8 h and the half-life was 5 h. Further, in data set [2] (250 mg/kg, mice group 3), the AUC(0-inf) came to 5550 ng·h/mL, the Cmax was 1350 ng/mL, the MRT worked out at 3.6 h and the half-life is 2.4 h. Moreover, in data set [2] (250 mg/kg, mice group 3), the AUC(0-t) was 4080 ng·h/mL. For the same compound, the “concentrations of the compound in brain” value in data set [2] (mice, preliminary, 250 mg/kg) is 1-5 μg/ml and 2.5-12.5 μM. Further, in data set [2] (mean of mice groups), the CL came out at 0.809 L/h, the Kel was determined as 0.1872 h⁻¹ and the Vd was 4.8 L. Also, in data set [2] (mice group 1), the CL came out at 0.803 L/h, the Kel was 0.1382 h⁻¹ and the Vd was 5.8 L. Further, in data set [2] (mice group 2), the CL amounted to 0.725 L/h, the Kel came out at 0.1381 h⁻¹ and the Vd stood at 5.3 L. In data set [2] (mice group 3), this compound came in with a CL of 0.901 L/h, a Kel of 0.2852 h⁻¹ and a Vd of 3.2 L.
For orientation: IC50 means the concentration that gives 50% inhibition. Consider `N#C/C=C/c1ccc2c(S(=O)(=O)n3nc(Nc4ccc(C#N)c(Cl)c4)nc3N)cccc2c1` [Compound 20, 4-[[5-amino-1-[[6-[2-cyanovinyl]-1-naphthyl]sulfonyl]-1,2,4-triazol-3-yl]amino]-2-chloro-benzonitrile], for which the IC50 in data set [3] is 10.6 µM; in data set [4], 1.42 µM.
